Laboratory results as given in ChEMBL document CHEMBL5380874, “Transformation of a Dopamine D2 Receptor Agonist to Partial Agonists as Novel Antipsychotic Agents” (J Med Chem, 2023).

Experiments:
[1] = Drug concentration in C57BL/6J mouse brain at 5 mg/kg,ip measured at 2 hrs by LC-MS analysis; type: ADME, organism-based; conditions: read-out: Ct
[2] = Drug concentration in C57BL/6J mouse plasma at 5 mg/kg,ip measured at 2 hrs by LC-MS analysis; type: ADME, organism-based; conditions: in vivo
[3] = Drug concentration in C57BL/6J mouse brain at 5 mg/kg,ip measured at 0.5 hrs by LC-MS analysis; type: ADME, organism-based; conditions: read-out: Ct
[4] = Ratio of drug concentration in brain to plasma in C57BL/6J mouse at 5 mg/kg,ip measured at 0.5 hrs by LC-MS analysis; type: ADME, organism-based; conditions: read-out: BPR
[5] = Ratio of drug concentration in brain to plasma in C57BL/6J mouse at 5 mg/kg,ip measured at 2 hrs by LC-MS analysis; type: ADME, organism-based; conditions: read-out: BPR
[6] = Drug concentration in C57BL/6J mouse plasma at 5 mg/kg,ip measured at 0.5 hrs by LC-MS analysis; type: ADME, organism-based; conditions: in vivo
D(2) dopamine receptor [7] = molecular target: T1, D(2) dopamine receptor (Homo sapiens, UniProt P14416); experiment: Displacement of [3H]N-methylspiperone from Dopamine D2 receptor (unknown origin) expressed in HEK293T cell membrane incubated for 2 hrs by radioligand competitive binding based MicroBeta TriLux reader method; type: cell membranes
T1 sequence (P14416 whole entry): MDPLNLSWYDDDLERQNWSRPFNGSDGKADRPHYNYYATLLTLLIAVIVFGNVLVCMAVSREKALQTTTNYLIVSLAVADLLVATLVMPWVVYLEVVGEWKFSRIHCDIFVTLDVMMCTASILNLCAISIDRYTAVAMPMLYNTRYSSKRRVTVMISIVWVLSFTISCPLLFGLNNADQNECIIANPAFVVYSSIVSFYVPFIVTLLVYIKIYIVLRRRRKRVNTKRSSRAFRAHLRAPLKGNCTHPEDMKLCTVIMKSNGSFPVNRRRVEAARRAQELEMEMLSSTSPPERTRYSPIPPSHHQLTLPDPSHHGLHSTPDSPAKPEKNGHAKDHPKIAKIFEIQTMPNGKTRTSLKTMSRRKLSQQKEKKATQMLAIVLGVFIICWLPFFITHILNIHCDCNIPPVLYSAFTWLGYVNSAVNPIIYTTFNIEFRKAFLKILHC

D(2) dopamine receptor [8] = molecular target: T1, D(2) dopamine receptor; experiment: Partial agonist activity at Dopamine D2 receptor (unknown origin) expressed in HEK293T co-expressing G-alphai assessed as increase in cAMP accumulation incubated for 5 mins by BRET assay; type: functional, cell-based; conditions: read-out: EC50
D(2) dopamine receptor [9] = molecular target: T1, D(2) dopamine receptor; experiment: Partial agonist activity at Dopamine D2 receptor (unknown origin) expressed in HEK293T coexpressing beta-arrestin-2 assessed as increase in cAMP accumulation incubated for 5 mins by beta-arrestin recruitment based BRET assay; type: functional, cell-based
D(1A) dopamine receptor = D(1A) dopamine receptor (Homo sapiens, UniProt P21728); experiment: Displacement of [3H]-SCH23390 from Dopamine D1 receptor (unknown origin) expressed in HEK293T cell membrane incubated for 2 hrs by radioligand competitive binding based MicroBeta TriLux reader method; type: cell membranes
Sequence of D(1A) dopamine receptor (P21728 whole entry): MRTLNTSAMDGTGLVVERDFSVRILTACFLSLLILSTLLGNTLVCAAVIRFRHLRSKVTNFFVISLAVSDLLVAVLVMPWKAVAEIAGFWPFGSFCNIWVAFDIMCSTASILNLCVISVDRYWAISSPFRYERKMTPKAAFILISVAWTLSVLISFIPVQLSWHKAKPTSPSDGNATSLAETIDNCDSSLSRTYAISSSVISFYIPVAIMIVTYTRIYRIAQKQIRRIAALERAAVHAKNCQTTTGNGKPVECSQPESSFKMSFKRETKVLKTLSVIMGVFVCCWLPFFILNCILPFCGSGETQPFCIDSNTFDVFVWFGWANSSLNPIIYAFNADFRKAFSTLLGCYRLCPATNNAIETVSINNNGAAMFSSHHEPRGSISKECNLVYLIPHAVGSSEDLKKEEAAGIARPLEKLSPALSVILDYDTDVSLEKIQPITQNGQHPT

[10] = molecular target: T2, 5-hydroxytryptamine receptor 2C (Homo sapiens, UniProt P28335); experiment: Displacement of [3H]-LSD from 5-HT2C receptor (unknown origin) expressed in HEK293T cell membrane incubated for 2 hrs by radioligand competitive binding based MicroBeta TriLux reader method; type: cell membranes; conditions: read-out: Ki
T2 sequence (P28335 whole entry): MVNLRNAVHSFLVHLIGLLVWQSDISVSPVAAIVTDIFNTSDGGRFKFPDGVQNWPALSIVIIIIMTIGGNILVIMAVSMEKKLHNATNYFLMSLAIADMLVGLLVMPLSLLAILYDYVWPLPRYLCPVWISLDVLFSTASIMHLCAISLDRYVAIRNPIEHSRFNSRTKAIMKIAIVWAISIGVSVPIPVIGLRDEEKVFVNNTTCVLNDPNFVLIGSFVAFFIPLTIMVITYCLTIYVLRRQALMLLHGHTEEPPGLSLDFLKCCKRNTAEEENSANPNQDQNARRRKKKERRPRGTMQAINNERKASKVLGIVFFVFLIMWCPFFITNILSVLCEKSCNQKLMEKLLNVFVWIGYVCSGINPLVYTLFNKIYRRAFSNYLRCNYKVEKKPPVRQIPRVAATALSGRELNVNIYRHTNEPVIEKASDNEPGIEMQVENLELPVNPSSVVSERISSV

D(1B) dopamine receptor = D(1B) dopamine receptor (Homo sapiens, UniProt P21918); experiment: Displacement of […] from Dopamine D5 receptor (unknown origin) expressed in HEK293T cell membrane incubated for 2 hrs by radioligand competitive binding based MicroBeta TriLux reader method; type: cell membranes
Sequence of D(1B) dopamine receptor (P21918 whole entry): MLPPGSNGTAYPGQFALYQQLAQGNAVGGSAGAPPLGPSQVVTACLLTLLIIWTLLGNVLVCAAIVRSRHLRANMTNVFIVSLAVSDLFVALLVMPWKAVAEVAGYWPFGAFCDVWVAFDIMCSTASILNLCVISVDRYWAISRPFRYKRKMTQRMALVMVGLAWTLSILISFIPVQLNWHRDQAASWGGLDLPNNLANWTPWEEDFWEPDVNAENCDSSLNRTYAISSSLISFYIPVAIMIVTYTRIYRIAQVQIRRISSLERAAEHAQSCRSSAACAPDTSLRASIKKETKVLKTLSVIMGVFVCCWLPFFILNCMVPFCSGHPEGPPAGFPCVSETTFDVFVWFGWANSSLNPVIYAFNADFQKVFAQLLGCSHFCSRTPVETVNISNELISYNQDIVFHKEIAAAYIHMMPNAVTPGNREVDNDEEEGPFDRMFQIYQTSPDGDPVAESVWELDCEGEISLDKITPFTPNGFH

SMILES	Ki (D(2) dopamine receptor [7]; read-out: Ki) [nM]	EC50 (D(2) dopamine receptor [8]) [nM]	EC50 (D(2) dopamine receptor [9]; read-out: EC50) [nM]	Ki (D(2) dopamine receptor [7]; read-out: pKi (converted)) [nM]	also measured
COc1cccc2cc(CNCCCCOc3ccc4ccc(=O)[nH]c4c3)oc12					concentration at 2 h [1]: 3.02 ng/mL; Cp [2]: 6.95 ng/mL; concentration at 0.5 h [3]: 32.1 ng/mL; Kp at 0.5 h [4]: 0.118; Kp at 2 h [5]: 0.434; Cp [6]: 272 ng/mL
COc1cccc2c3c(oc12)CN(CCCCOc1ccc2c(c1)NC(=O)CC2)CC3					concentration at 2 h [1]: 332 ng/mL; Cp [2]: 571 ng/mL; concentration at 0.5 h [3]: 410 ng/mL; Kp at 0.5 h [4]: 0.759; Kp at 2 h [5]: 0.439; Ki (D(1A) dopamine receptor; read-out: Ki): 35.5 nM; Ki (D(1A) dopamine receptor; read-out: pKi (converted)): 36.3 nM; Ki [10]: 611 nM; Cp [6]: 540 ng/mL; Ki (D(1B) dopamine receptor; read-out: Ki): 159 nM; Ki (D(1B) dopamine receptor; read-out: pKi (converted)): 162 nM
COc1cccc2cc(CNCCCCOc3ccc4c(c3)NC(=O)CC4)oc12	33.3	5.16	2.01	33.9	concentration at 2 h [1]: 4.1 ng/mL; Cp [2]: 10.7 ng/mL; concentration at 0.5 h [3]: 60.7 ng/mL; Kp at 0.5 h [4]: 0.183; Kp at 2 h [5]: 0.384; Cp [6]: 331 ng/mL
CCOc1cccc2cc(CNCCCOc3ccc4c(c3)NC(=O)CC4)oc12	109	30.4	12.2		
O=C1CCc2ccc(OCCCCNCc3cc4ccccc4o3)cc2N1	582	53.7	7.29		
CCOc1cccc2cc(CNCCCCCOc3ccc4c(c3)NC(=O)CC4)oc12	439	955	45.1	447	EC50 (D(2) dopamine receptor [9]; read-out: pEC50 (converted)): 45.7 nM
COc1cccc2c3c(oc12)CN(CCCOc1ccc2ccc(=O)[nH]c2c1)CC3		0.31	26.6		

The next lines start with results.

Ki (D(2) dopamine receptor [7]; read-out: Ki) [nM]	EC50 (D(2) dopamine receptor [8]) [nM]	EC50 (D(2) dopamine receptor [9]; read-out: EC50) [nM]	Ki (D(2) dopamine receptor [7]; read-out: pKi (converted)) [nM]	SMILES	also measured
1340	2210	518		COc1cccc2c3c(oc12)CN(CCCCOc1ccc2cccnc2c1)CC3	
935	2670	125	955	CCOc1cccc2cc(CNCCCCOc3ccc4oc(C)nc4c3)oc12	EC50 (D(2) dopamine receptor [9]; read-out: pEC50 (converted)): 135 nM
67.9	10.9	6.2	69.2	CCOc1cccc2cc(CNCC[C@H]3CC[C@H](NC(=O)N4CCCC4)CC3)oc12	
		23		COc1cccc2c3c(oc12)CN(C/C=C/COc1ccc2ccc(=O)[nH]c2c1)CC3	
